Test results as given in patent EP0571593B1, “NEW NON IONIC IODIZED AGENTS FOR X-RAY CONTRASTING, METHOD FOR PREPARING THEM AND GALENICAL COMPOSITIONS CONTAINING THEM” (CENTRO INVESTIGACION JUSTESA IMAGEN S.A., priority 1991, dated 1993).

Key:
Assay type in all cases: physicochemical
[1] = Osmolality of aqueous solutions; conditions: 300mg I/ml
Iodine content = assay: Iodine content
[2] = Viscosity of aqueous solutions; conditions: 30°C, 300mg I/ml

SMILES | Osmolality mosm/kg at 300mg I/ml [1] [mosm/kg] | % Iodine (Iodine content) | Viscosity mPa s (30°C) at 300mg I/ml [2]
CN(CC(=O)N(C)c1c(I)c(C(=O)NC(CO)C(O)CO)c(I)c(C(=O)NC(CO)C(O)CO)c1I)C(=O)c1c(I)c(NC(=O)CO)c(I)c(C(=O)NCC(O)CO)c1I (stereo not drawn) [EXAMPLE 8, N,N'-bis-(1-hydroxymethyl-2,3-dihydroxypropyl)-5-{3-[N-(2,3-dihydroxypropyl)carbamoyl]-5-hydroxyacetamido-2,4,6-triiodobenzoyl-N-methylaninoacetyl-N-nethylamino}-2,4,6-tri iodoisophthalamide] | 190 | 50% | 7,6 mPa s
COCC(=O)Nc1c(I)c(C(=O)NC(CO)C(O)CO)c(I)c(C(=O)N(C)CC(=O)N(C)c2c(I)c(C(=O)NC(CO)C(O)CO)c(I)c(C(=O)NC(CO)C(O)CO)c2I)c1I (stereo not drawn) [EXAMPLE 10, N,N'-bis-(1-hydroxymethyl-2,3-dihydroxypropyl)-5-{3-[N-(1-hydroxymethyl-2,3-dihydroxypropyl)carbamoyl]-5-methoxyacetamido-2,4,6-triiodobenzoyl-N-methylaminoacetyl-N-methylamino}-2,4,6-triiodoisophthalamide] | 204 | 48,6% | 8,9 mPa s
COCC(=O)Nc1c(I)c(C(=O)NCC(O)CO)c(I)c(C(=O)N(C)CC(=O)N(C)c2c(I)c(C(=O)NCC(O)CO)c(I)c(C(=O)NCC(O)CO)c2I)c1I (stereo not drawn) [EXAMPLE 12, N,N'-bis-(2,3-dihydroxypropyl)-5-{3-[N-(2,3-dihydroxypropyl)carbamoyl]-5-methoxyacetamido-2,4,6-triiodobenzoyl -N-methylaminoacetyl-N-methylamino}-2,4,6-triiodoisophthalamide] | 130 | 51,6% | 8,6 mPa s
O=C(CN(CC(O)CO)C(=O)c1c(I)c(NC(=O)CO)c(I)c(C(=O)NCC(O)CO)c1I)Nc1c(I)c(C(=O)NCC(O)CO)c(I)c(C(=O)NCC(O)CO)c1I (stereo not drawn) [EXAMPLE 13, N,N'-bis-(2,3-dihydroxypropyl)-5-{3-[N-(2,3-dihydroxypropyl)carbamoyl]-5-hydroxyacetamido-2,4,6-triiodobenzoyl-N-(2,3-dihydroxypropyl)aminoacetamido}-2,4,6-triiodoisophthalamide] | 190 | 50,5% | 7,2 mPa s
COCC(=O)Nc1c(I)c(C(=O)NCC(O)CO)c(I)c(C(=O)N(CC(=O)Nc2c(I)c(C(=O)NCC(O)CO)c(I)c(C(=O)NCC(O)CO)c2I)CC(O)CO)c1I (stereo not drawn) [EXAMPLE 15, N,N'-bis-(2,3-dihydroxypropyl)-5-{3-[N-(2,3-dihydroxypropyl)carbamoyl]-5-methoxyacetamido-2,4,6-triiodobenzoyl -N-(2,3-dihydroxypropyl)aminoacetamido}-2,4,6-triiodo isophthalamide] | 162 | 50% | 8,6 mPa s
O=C(NCCO)c1c(I)c(C(=O)NCCO)c(I)c(N(CCO)C(=O)CN(CCO)C(=O)c2c(I)c(C(=O)NCC(O)CO)c(I)c(N(CCO)C(=O)CO)c2I)c1I (stereo not drawn) [EXAMPLE 16, N,N'-bis-(2-hydroxyethyl)-5-{3-[N-(2,3-dihydroxypropyl)-carbamoyl]-5-hydroxyacetyl-N-(2-hydroxyethyl)amino-2,4,6-tri-iodobenzoyl-N-(2-hydroxyethyl)amino-acetyl-N-(2-hydroxyethyl)amino}-2,4,6-triiodoisophthalamide] | 131 | 50,5% | 7,6 mPa s
COCC(=O)Nc1c(I)c(C(=O)NCC(O)CO)c(I)c(C(=O)N(CCO)CC(=O)Nc2c(I)c(C(=O)NC(CO)C(O)CO)c(I)c(C(=O)NC(CO)C(O)CO)c2I)c1I (stereo not drawn) [EXAMPLE 22, N,N'-bis-(1-hydroxymethyl-2,3-dihydroxypropyl)-5-{3-[N-(2,3-dihydroxypropyl)carbamoyl]-5-methoxyacetamido-2,4,6-triiodobenzoyl-N-(2-hydroxyethyl)aminoacetamido}-2,4,6-triiodo isophthalamide] | 118 | 49% | 10,0 mPa s
CC(=O)Nc1c(I)c(C(=O)NCC(O)CO)c(I)c(C(=O)N(CC(=O)N(C)c2c(I)c(C(=O)NCC(O)CO)c(I)c(C(=O)NCC(O)CO)c2I)CC(O)CO)c1I (stereo not drawn) [EXAMPLE 23, N,N -bis-(2,3-dihydroxypropyl)-5-{3-[N-(2,3-dihydroxypropyl)carbamoyl]-5-acetamido-2,4,6-triiodobenzoyl-N-(2,3-dihydroxypropyl)aminoacetyl-N-methylamino}-2,4,6-triiodoisophthalamide] | 162 | 50,5% | 7,9 mPa s
CN(CC(=O)N(C)c1c(I)c(C(=O)N(C)CC(O)CO)c(I)c(C(=O)N(C)CC(O)CO)c1I)C(=O)c1c(I)c(NC(=O)CO)c(I)c(C(=O)NCC(O)CO)c1I (stereo not drawn) [EXAMPLE 24, N,N'-bis-(2,3-dihydroxypropyl)-N,N'-dimethyl-5-{3-[N-(2,3-dihydroxypropyl)carbamoyl]-5-hydroxyacetamido-2,4,6-triiodobenzoyl-N-methylaminoacetyl-N-methylamino}-triiodo isophthalamide] | 165 | 51,1% | 7,1 mPa s
COCC(=O)Nc1c(I)c(C(=O)NCC(O)CO)c(I)c(C(=O)N(C)CC(=O)N(C)c2c(I)c(C(=O)N(C)CC(O)CO)c(I)c(C(=O)N(C)CC(O)CO)c2I)c1I (stereo not drawn) [EXAMPLE 25, N,N'-bis-(2,3-dihydroxypropyl)-N,N'-dimethyl-5-{3-[N-(2,3-dihydroxypropyl)carbamoyl]-5-methoxyacetamido-2,4,6-triiodobenzoyl-N-methylaminoacetyl-N-methylamino}-2,4,6-triiodo isophthalamide] | 140 | 50,6% | 8,0 mPa s
CN(CC(O)CO)C(=O)c1c(I)c(C(=O)N(C)CC(O)CO)c(I)c(N(C)C(=O)CNC(=O)c2c(I)c(NC(=O)CO)c(I)c(C(=O)NCC(O)CO)c2I)c1I (stereo not drawn) [EXAMPLE 26, N,N'-bis-(2,3-dihydroxypropyl)-N,N'-dimethyl-5-{3-[N-(2,3-dihydroxypropyl)carbamoyl]-5-hydroxyacetamido-2,4,6-triiodobenzoylaminoacetyl-N-methylamino}-2,4,6-triiodoiso phthalamide] | 145 | 51,6% | 7,7 mPa s
COCC(=O)N(CCO)c1c(I)c(C(=O)NCC(O)CO)c(I)c(C(=O)N(CCO)CC(=O)N(CCO)c2c(I)c(C(=O)NCCO)c(I)c(C(=O)NCCO)c2I)c1I (stereo not drawn) [EXAMPLE 32, N,N'-bis-(2-hydroxyethyl)-5-{3-[N-(2,3-dihydroxypropyl)carbamoyl]-5-methoxyacetyl-N-(2-hydroxyethyl)amino-2,4,6-triiodobenzoyl-N-(2-hydroxyethyl)aminoacetyl-N-(2-hydroxyethyl)amino}-2,4,6-triiodoisophthalamide] | 155 | 50% | 8,2 mPa s
COCC(=O)N(CCO)c1c(I)c(C(=O)NCC(O)CO)c(I)c(C(=O)N(C)CC(=O)N(CCO)c2c(I)c(C(=O)NCC(O)CO)c(I)c(C(=O)NCC(O)CO)c2I)c1I (stereo not drawn) [EXAMPLE 35, N,N'-bis-(2,3-dihydroxypropyl)-5-{3-[N-(2,3-dihydroxypropyl)carbamoyl]-5-methoxyacetyl-N-(2-hydroxyethyl)amino-2,4,6-triiodobenzoyl-N-methylaminoacetyl-N-(2-hydroxyethyl)amino}-2,4,6 triiodoisophthalamide] | 214 | 49,1% | 8,2 mPa s
CC(=O)Nc1c(I)c(C(=O)NCC(O)CO)c(I)c(C(=O)N(C)CC(=O)N(C)c2c(I)c(C(=O)NCC(O)CO)c(I)c(C(=O)NCC(O)CO)c2I)c1I (stereo not drawn) [EXAMPLE 37, N,N'-bis-(2,3-dihydroxypropyl)-5-{3-[N-(2,3-dihydroxypropyl)carbamoyl]-5-acetamido-2,4,6-triiodobenzoyl-N-methylacetyl-N-methylamino}-2,4,6-triiodoisophthalamide] | 130 | 52,6% | 9,9 mPa s
CC(=O)Nc1c(I)c(C(=O)NCC(O)CO)c(I)c(C(=O)N(C)CC(=O)N(C)c2c(I)c(C(=O)NC(CO)C(O)CO)c(I)c(C(=O)NC(CO)C(O)CO)c2I)c1I (stereo not drawn) [EXAMPLE 38, N,N'-bis-(1-hydroxymethyl-2,3-dihydroxypropyl)-5-{3-[N-(2,3-dihydroxypropyl]carbamoyl]-5-acetamido-2,4,6-triiodobenzoyl -N-methylacetyl-N-methylamino}-2,4,6-triiodoisophthalamide] | 155 | 50,6% | 9,1 mPa s
COCC(=O)Nc1c(I)c(C(=O)NCC(O)CO)c(I)c(C(=O)N(CC(=O)N(C)c2c(I)c(C(=O)NCC(O)CO)c(I)c(C(=O)NCC(O)CO)c2I)CC(O)COC)c1I (stereo not drawn) [EXAMPLE 39, N,N'-bis-(2,3-dihydroxypropyl)-5-{3-[N-(2,3-dihydroxypropyl)carbamoyl]-5-methoxyacetamido-2,4,6-triiodobenzoyl--N-(2-hydroxy-3-methoxypropyl)aminoacetyl-N-methylamino} -2,4,6-triiodoisophthalamide] | 190 | 49,1% | 9,6 mPa s
COCCN(C(=O)CO)c1c(I)c(C(=O)NCC(=O)N(CCOC)c2c(I)c(C(=O)NCC(O)CO)c(I)c(C(=O)NCC(O)CO)c2I)c(I)c(C(=O)NCC(O)CO)c1I (stereo not drawn) [EXAMPLE 40, N,N'-bis-(2,3-dihydroxypropyl)-5-{3-[N-(2,3-dihydroxypropyl)carbamoyl]-5-hydroxyacetyl-N-(2-methoxyethyl)amino-2,4,6-triiodobenzoylaminoacetyl-N-(2-methoxyethyl)amino} -2,4,6-triiodoisophthalamide] | 160 | 49,1% | 10,2 mPa s
